Experimental data: patent publication US20070026080A1, “Manufacturing process for tigecycline” (Wyeth, priority 2005, published 2007)

Assay: Strength and degradation profile of tigecycline 20 mg/mL bulk solutions by reversed phase HPLC (effect of temperature, time, pH, dissolved oxygen; Runs A to O)
Assay type: physicochemical
Conditions: 20 mg/mL
Protocol: The contents of the sample vials are dissolved in diluent. The sample solution is diluted, if necessary, and chromatographed on a reversed phase column using gradient elution. Impurities are determined by comparing the impurity peak areas in the sample preparation chromatogram to the average area of tigecycline peaks in the standard preparation chromatograms obtained concomitantly.
Chromatographic Column—Length about 15 cm, inside diameter about 4.6 mm, packed with Inertsil ODS2, 5 μm size particles or equivalent.
Detector—Ultraviolet spectrophotometric detector capable of operating at 248 nm with a sensitivity of about 0.5 absorbance units full scale.
The results of additional studies to investigate the effect of processing parameters such as temperature, time, and dissolved oxygen content on the purity profile of tigecycline solutions using the following materials, methods and procedures are presented in Tables A to O.
The experiments were run in plastic glove bags under normal laboratory light conditions. Plastic glove boxes will be used to control the headspace of the beakers. The batch size was 200 mL. • 1. Prepare the glove bag with a mixture of nitrogen and air to achieve an oxygen level in the solution as per the design. • 2. Place the jacketed beaker on the magnetic stirrer. Connect it to the cooler. Set the cooler to the desired set point. • 3. Add 200 mL of SWFI in to the beaker. Allow equilibrating. Measure the temperature and oxygen content. When it reaches the desired condition, add accurately weighed API and mix until dissolved. If necessary use spatula to aid dissolution. For pH adjustments, use 4 mL of either 0.1N NaOH or 0.1N HCl and 196 mL of WFI for manufacture. • 4. After complete dissolution, Transfer about 5.5 mL of Solution in vials and stopper them. These vials will be stoppered at the appropriate headspace conditions. Place the vials in appropriate temperature conditions. • 5. Sample the vials at 1, 4, 8, 10, 12 and 24 hours. Send the samples for analysis. Freeze the 10, 12 and 24 samples at −20° C. for analysis the following day. • 6. Measure pH and record color of the solution at each time point. Results
The 1-hour samples were taken directly from the beakers. Samples for later time points were collected in stoppered vials processed in the atmosphere of the bag in order to simulate the headspace conditions then placed in water baths or refrigerator to maintain there respective temperature conditions. This was done to maintain safety in the lab. Disposable plastic glove bags require constant flow of a mixture of nitrogen and air to maintain headspace oxygen level that will result in the desired dissolved oxygen (DO) content in the sample. The pH of samples was measured at each sample points.
Strength and degradation profile was analyzed by HPLC as described above. […] Degradation was slightly higher at higher temperature condition.

[1] = Run #I, 5° C., pH 7.9, Oxygen 1.0 mg/L, hours 1,4,8,10,12,24 at r6-r11, 24 h
[2] = Run #I, 5° C., pH 7.9, Oxygen 1.0 mg/L, hours 1,4,8,10,12,24 at r17-r22
[3] = Run #I, 5° C., pH 7.9, Oxygen 1.0 mg/L, hours 1,4,8,10,12,24 at r17-r22, 1 h
[4] = Run #I, 5° C., pH 7.9, Oxygen 1.0 mg/L, hours 1,4,8,10,12,24 at r17-r22, 4 h
[5] = Run #I, 5° C., pH 7.9, Oxygen 1.0 mg/L, hours 1,4,8,10,12,24 at r17-r22, 8 h
[6] = Run #I, 5° C., pH 7.9, Oxygen 1.0 mg/L, hours 1,4,8,10,12,24 at r17-r22, 10 h
[7] = Run #I, 5° C., pH 7.9, Oxygen 1.0 mg/L, hours 1,4,8,10,12,24 at r17-r22, 24 h
[8] = Run #J, 8° C., Oxygen = 1.0 mg/mL, hours 1,4,8,12,24 at r6-r10, 1 hours
[9] = Run #J, 8° C., Oxygen = 1.0 mg/mL, hours 1,4,8,12,24 at r6-r10, 4 hours
[10] = Run #J, 8° C., Oxygen = 1.0 mg/mL, hours 1,4,8,12,24 at r6-r10, 8 hours
[11] = Run #J, 8° C., Oxygen = 1.0 mg/mL, hours 1,4,8,12,24 at r6-r10, 12 hours
[12] = Run #J, 8° C., Oxygen = 1.0 mg/mL, hours 1,4,8,12,24 at r6-r10, 24 hours
[13] = Run #J, 8° C., hours 1,4,8,12,24 at r6-r10, 1 hours
[14] = Run #J, 8° C., hours 1,4,8,12,24 at r6-r10, 4 hours
[15] = Run #J, 8° C., hours 1,4,8,12,24 at r6-r10, 8 hours
[16] = Run #J, 8° C., hours 1,4,8,12,24 at r6-r10, 12 hours
[17] = Run #J, 8° C., hours 1,4,8,12,24 at r6-r10, 24 hours
[18] = Run #K, 2° C., pH 8.2, Oxygen 0.1 mg/L, hours 1,4,8,10,12,24 at r6-r11
[19] = Run #K, 2° C., pH 8.2, Oxygen 0.1 mg/L, hours 1,4,8,10,12,24 at r6-r11, after 1 hours
[20] = Run #K, 2° C., pH 8.2, Oxygen 0.1 mg/L, hours 1,4,8,10,12,24 at r6-r11, after 4 hours
[21] = Run #K, 2° C., pH 8.2, Oxygen 0.1 mg/L, hours 1,4,8,10,12,24 at r6-r11, after 8 hours
[22] = Run #K, 2° C., pH 8.2, Oxygen 0.1 mg/L, hours 1,4,8,10,12,24 at r6-r11, after 10 hours
[23] = Run #K, 2° C., pH 8.2, Oxygen 0.1 mg/L, hours 1,4,8,10,12,24 at r6-r11, after 12 hours

Compound: CN(C)c1cc(NC(=O)CNC(C)(C)C)c(O)c2c1C[C@H]1C[C@H]3[C@H](N(C)C)C(O)=C(C(N)=O)C(=O)[C@@]3(O)C(O)=C1C2=O [Tigecycline]
- Strength (Run #I, 5° C., pH 7.9, Oxygen 1.0 mg/L, hours 1,4,8,10,12,24 at r6-r11, 12 h): 19.151 mg/mL
- RRT 0.58 [1]: 0.10%
- RRT 0.74 Epimer [1]: 0.23%
- Strength [1]: 19.242 mg/mL
- RRT 0.78 MW = 557 [2]: BRL (BRL means below reporting limit (meaning less than 0.05% of tigecycline peak))
- RRT 1.12 [2]: BRL (BRL means below reporting limit (meaning less than 0.05% of tigecycline peak))
- RRT 1.64 Mino [3]: 0.13%
- RRT 1.85 MW = 597 [3]: 0.06%
- Total [3]: 0.54%
- RRT 1.64 Mino [4]: 0.10%
- RRT 1.85 MW = 597 [4]: 0.09%
- RRT 1.64 Mino [5]: 0.09%
- RRT 1.85 MW = 597 [5]: 0.08%
- Total [5]: 0.53%
- RRT 1.64 Mino [6]: 0.08%
- RRT 1.85 MW = 597 [6]: 0.10%
- Total [6]: 0.98%
- Total (Run #I, 5° C., pH 7.9, Oxygen 1.0 mg/L, hours 1,4,8,10,12,24 at r17-r22, 12 h): 0.71%
- RRT 1.64 Mino [7]: 0.11%
- Total [7]: 0.96%
- RRT 1.67 MW = 556 [8]: 0.09%
- Strength [8]: 19.515 mg/mL
- RRT 1.67 MW = 556 [9]: 0.17%
- Strength [9]: 19.469 mg/mL
- RRT 1.67 MW = 556 [10]: 0.15%
- Strength [10]: 19.323 mg/mL
- RRT 1.67 MW = 556 [11]: 0.19%
- Strength [11]: 19.140 mg/mL
- RRT 1.67 MW = 556 [12]: 0.21%
- Strength [12]: 19.152 mg/mL
- RRT 0.58 [13]: 0.06%
- RRT 0.74 Epimer [13]: 0.20%
- RRT 1.45 [13]: 0.08%
- RRT 1.85 MW = 597 [13]: 0.09%
- Total [13]: 0.62%
- RRT 0.74 Epimer [14]: 0.22%
- RRT 1.45 [14]: 0.06%
- RRT 1.64 Mino [14]: 0.09%
- RRT 1.85 MW = 597 [14]: 0.08%
- Total [14]: 0.90%
- RRT 1.45 [15]: 0.07%
- Total [15]: 1.00%
- RRT 0.74 Epimer [16]: 0.24%
- RRT 1.64 Mino [16]: 0.10%
- RRT 1.85 MW = 597 [16]: 0.11%
- Total [16]: 1.17%
- RRT 0.58 [17]: 0.08%
- RRT 0.74 Epimer [17]: 0.28%
- RRT 1.45 [17]: 0.05%
- RRT 1.64 Mino [17]: 0.11%
- RRT 1.85 MW = 597 [17]: 0.10%
- Total [17]: 1.76%
- RRT 0.12 MW = 633 [18]: BRL (BRL means below reporting limit (meaning less than 0.05% of tigecycline peak))
- RRT 0.23 MW = 572 [18]: BRL (BRL means below reporting limit (meaning less than 0.05% of tigecycline peak))
- RRT 0.50 MW = 601 [18]: BRL (BRL means below reporting limit (meaning less than 0.05% of tigecycline peak))
- RRT 0.55 MW = 583 [18]: BRL (BRL means below reporting limit (meaning less than 0.05% of tigecycline peak))
- RRT 0.64 9-Amino [18]: BRL (BRL means below reporting limit (meaning less than 0.05% of tigecycline peak))
- RRT 0.78 MW = 557 [18]: BRL (BRL means below reporting limit (meaning less than 0.05% of tigecycline peak))
- RRT 1.12 [18]: BRL (BRL means below reporting limit (meaning less than 0.05% of tigecycline peak))
- RRT 1.58 [18]: BRL (BRL means below reporting limit (meaning less than 0.05% of tigecycline peak))
- RRT 1.67 MW = 556 [18]: BRL (BRL means below reporting limit (meaning less than 0.05% of tigecycline peak))
- RRT 0.74 Epimer [19]: 0.16%
- RRT 1.64 Mino [19]: 0.12%
- Strength [19]: 19.187 mg/mL
- Total [19]: 0.51%
- RRT 0.74 Epimer [20]: 0.18%
- RRT 1.64 Mino [20]: 0.13%
- Strength [20]: 19.324 mg/mL
- Total [20]: 0.61%
- RRT 0.58 [21]: 0.07%
- Strength [21]: 19.127 mg/mL
- Total [21]: 0.63%
- RRT 0.74 Epimer [22]: 0.19%
- RRT 1.64 Mino [22]: 0.15%
- RRT 1.85 MW = 597 [22]: 0.10%
- Strength [22]: 20.357 mg/mL
- Total [22]: 0.59%
- RRT 0.58 [23]: 0.08%
- RRT 0.74 Epimer [23]: 0.22%
- RRT 1.45 [23]: 0.09%
- RRT 1.64 Mino [23]: 0.10%
- RRT 1.85 MW = 597 [23]: 0.09%
- Strength [23]: 19.956 mg/mL
- Total [23]: 0.56%
